Active and inactive are the calls of the source.
What was measured:
Insulin-degrading enzyme [1] = molecular target: T1, Insulin-degrading enzyme (Homo sapiens, UniProt P14735); assay: activators of endogenous IDE in HEK cells, dose response, cell-based, fluorescence polarization (AID 588439); format: functional
T1 sequence (P14735 whole entry): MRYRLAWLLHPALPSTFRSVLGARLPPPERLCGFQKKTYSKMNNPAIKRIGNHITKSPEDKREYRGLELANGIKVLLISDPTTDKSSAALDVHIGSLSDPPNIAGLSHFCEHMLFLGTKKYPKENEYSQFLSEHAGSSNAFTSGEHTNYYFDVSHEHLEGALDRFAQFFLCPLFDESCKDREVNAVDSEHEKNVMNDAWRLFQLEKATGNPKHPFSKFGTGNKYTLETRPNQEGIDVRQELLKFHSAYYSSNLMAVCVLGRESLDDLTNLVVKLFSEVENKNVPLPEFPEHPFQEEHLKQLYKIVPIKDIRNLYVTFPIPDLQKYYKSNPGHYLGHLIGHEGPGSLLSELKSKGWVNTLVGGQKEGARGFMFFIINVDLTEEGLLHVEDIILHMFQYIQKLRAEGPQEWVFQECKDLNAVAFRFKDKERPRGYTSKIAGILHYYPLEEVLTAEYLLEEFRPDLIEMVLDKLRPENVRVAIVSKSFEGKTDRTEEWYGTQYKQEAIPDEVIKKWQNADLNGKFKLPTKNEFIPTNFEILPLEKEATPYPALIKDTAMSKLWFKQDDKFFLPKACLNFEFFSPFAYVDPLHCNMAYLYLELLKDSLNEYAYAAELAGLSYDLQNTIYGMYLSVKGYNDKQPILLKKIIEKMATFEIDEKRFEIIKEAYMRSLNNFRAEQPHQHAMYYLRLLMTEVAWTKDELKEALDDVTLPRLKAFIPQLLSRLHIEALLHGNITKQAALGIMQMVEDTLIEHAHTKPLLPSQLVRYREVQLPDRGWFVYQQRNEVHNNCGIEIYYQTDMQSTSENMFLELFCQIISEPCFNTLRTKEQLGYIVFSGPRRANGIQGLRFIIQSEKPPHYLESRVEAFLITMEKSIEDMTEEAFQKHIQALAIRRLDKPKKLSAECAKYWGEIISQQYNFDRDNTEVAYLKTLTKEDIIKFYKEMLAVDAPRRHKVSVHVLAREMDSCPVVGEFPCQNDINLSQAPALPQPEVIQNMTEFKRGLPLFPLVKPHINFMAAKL

HEK293 [2] = assay: optical interference in Abeta FP readout, dose response, artefact control for IDE activator project, biochemical, fluorescence polarization (AID 588442); format: functional, cell-based; conditions: Homo sapiens
HEK293 [3] = assay: HEK cell cytotoxicity by LDH release, dose response, cytotoxicity control for IDE activator project, fluorescence, HEK cells (AID 588440); format: functional, cell-based; conditions: Homo sapiens;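 also: cytotoxicity by LDH release measuring loss of membrane integrity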
Insulin-degrading enzyme [4] = molecular target: T1, Insulin-degrading enzyme; assay: activators of recombinant IDE enzyme, dose response, counter-screen for IDE activator project, biochemical, fluorescence polarization (AID 588681)
Interleukin-8 [5] = molecular target: T2, Interleukin-8 (Homo sapiens, UniProt P10145); assay: Dose Response confirmation of uHTS small molecule hits for cystic fibrosis induced NFkb Inhibitors in a TNFa-induced IL8 counterscreen.; format: functional; conditions: read-out: IC50_Mean
T2 sequence (P10145 whole entry): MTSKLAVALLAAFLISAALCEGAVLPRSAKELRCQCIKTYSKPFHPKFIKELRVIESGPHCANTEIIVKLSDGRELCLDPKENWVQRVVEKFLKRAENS

HEK293 [6] = assay: inhibitors of LMP1-driven NF-kB reporter, dose response, cell-based, HEK293, luciferase, cherry-pick (AID 588343); format: functional; conditions: Homo sapiens
Interleukin-8 [7] = molecular target: T2, Interleukin-8; assay: Dose Response confirmation of uHTS small molecule hits for cystic fibrosis induced NFkb Inhibitors in a PAF-induced IL8 counterscreen.; format: functional; conditions: read-out: IC50_Mean
[8] = molecular target: Adenosylmethionine-8-amino-7-oxononanoate aminotransferase (Mycobacterium tuberculosis, UniProt P9WQ81); assay: Mycobacterium tuberculosis BioA enzyme inhibitor Measured in Biochemical System Using Plate Reader - 2163-02_Inhibitor_Dose_CherryPick_Activity.; format: functional, Mycobacterium tuberculosis UT205
Chain of Adenosylmethionine-8-amino-7-oxononanoate aminotransferase (P9WQ81 whole entry): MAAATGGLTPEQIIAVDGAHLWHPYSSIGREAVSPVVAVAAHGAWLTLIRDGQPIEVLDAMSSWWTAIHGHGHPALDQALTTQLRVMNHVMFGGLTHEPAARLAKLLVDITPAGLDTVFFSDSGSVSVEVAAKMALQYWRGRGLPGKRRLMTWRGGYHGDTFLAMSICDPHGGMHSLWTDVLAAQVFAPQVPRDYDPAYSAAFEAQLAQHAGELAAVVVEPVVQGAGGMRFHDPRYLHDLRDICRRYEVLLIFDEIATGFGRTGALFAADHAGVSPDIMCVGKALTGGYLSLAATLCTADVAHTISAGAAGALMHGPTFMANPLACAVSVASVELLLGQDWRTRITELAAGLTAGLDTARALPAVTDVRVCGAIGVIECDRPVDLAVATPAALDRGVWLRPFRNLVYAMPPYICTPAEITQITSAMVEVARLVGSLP

Melanocortin receptor 4 [9] = molecular target: T3, Melanocortin receptor 4 (Homo sapiens, UniProt P32245); format: functional, cell-based;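 also: Cell-based assay with luminescence read-out, confirmatory dose-response testing for agonist activity of biased ligands at MC4R; human U2OS cells with tagged receptor and beta-arrestin; potency of agonists that increase receptor coupling to beta-arrestin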
T3 sequence (P32245 whole entry): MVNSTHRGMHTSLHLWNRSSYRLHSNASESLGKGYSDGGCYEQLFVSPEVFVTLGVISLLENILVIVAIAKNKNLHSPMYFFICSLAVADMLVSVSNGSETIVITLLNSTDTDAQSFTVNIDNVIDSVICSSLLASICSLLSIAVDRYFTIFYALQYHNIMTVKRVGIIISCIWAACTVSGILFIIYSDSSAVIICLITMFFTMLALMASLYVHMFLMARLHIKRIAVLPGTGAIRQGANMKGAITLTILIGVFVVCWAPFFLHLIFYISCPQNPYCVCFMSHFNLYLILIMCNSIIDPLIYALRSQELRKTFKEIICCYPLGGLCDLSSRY

[10] = nonselective inhibitors of cellular cAMP signaling, dose response, counter-screen for MC4R biased antagonist project, cell-based, TR-FRET cAMP detection (AID 602305); format: functional;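 also: U2OS cells stimulated with forskolin near its EC80 as the cAMP inducer; potency is for inhibition of forskolin-stimulated cAMP signaling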
Melanocortin receptor 4 [11] = molecular target: T3, Melanocortin receptor 4; assay: MC4R antagonist potency on cAMP, dose response, cell-based, TR-FRET, biased antagonists (AID 602298); format: functional;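 also: antagonist potency against agonist-stimulated cAMP production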

SMILES: COc1ccccc1NS(=O)(=O)c1cccc(NC(=O)C2CC2)c1
- EC50 (Insulin-degrading enzyme [1]): > 54.7 µM (inactive)
- EC50 (HEK293 [2]): > 55.9 µM (inactive)
- IC50 (HEK293 [3]): > 89.2 µM (inactive)
- EC50 (Insulin-degrading enzyme [4]): > 54.7 µM (inactive)

SMILES: CCn1c(=O)c2c(cnn2C)c2ccccc21
- IC50 (Interleukin-8 [5]): > 79 µM (inactive)
- AC50 (HEK293 [6]): 35.3 µM (active)
- IC50 (Interleukin-8 [7]): 46.2 µM (inactive)

SMILES: COc1cc(OC)c(C(=O)Nc2cccnc2)cc1OC
- AC50 [8]: 1.81 µM (active)

SMILES: O=C(c1ccc(Br)s1)N1CCN(Cc2ccc3c(c2)OCO3)CC1
- AC50 [8]: 1.64 µM (active)

SMILES: Cc1ccccc1-c1nc(-c2ccc(NC(=O)c3ccc4c(c3)OCO4)cc2)no1
- EC50 (Melanocortin receptor 4 [9]): > 89.1 µM (inactive)

SMILES: O=C1OCCC1Sc1nc2cc(Cl)ccc2n1Cc1ccccc1 (configuration not stated)
- IC50 [10]: > 64.6 µM (inactive)
- IC50 (Melanocortin receptor 4 [11]): > 64.6 µM (inactive)
